From PubChem BioAssay (NCI)
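1) Cells in 96-well plates. 2) Compound, 48 h, 5 concentrations. 3) Linear interpolation between surrounding doses. 4) Unreached endpoint = highest concentration. TGI is the concentration that stops growth completely.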

Legend:
Experiment in all cases: NCI tumour cell line growth inhibition, 48 h
[1] = system: DMS 114 small cell lung
[2] = system: LXFL 529 NSCLC
[3] = system: M19-MEL melanoma
[4] = system: HOP-18 NSCLC
[5] = system: SN12K1 renal
[6] = system: P388 leukemia
[7] = system: P388/ADR leukemia

| SMILES | TGI [1] [µM] | TGI [2] [µM] | TGI [3] [µM] | TGI [4] [µM] | TGI [5] [µM] | TGI [6] [µM] | TGI [7] [µM] |
| --- | --- | --- | --- | --- | --- | --- | --- |
| CC(C(=O)OCc1ccccc1)N(Cc1ccccc1)Cc1ccccc1 (centres undefined) | > 100 | > 100 |  |  |  |  |  |
| O=C(NNC(=S)Nc1ccccc1)c1nsc2ccccc12 | 70 | > 100 | > 100 | 41.4 |  |  |  |
| O=C(CCN1CCOCC1)/C(=C/c1ccccc1)c1ccccc1 | 12 |  | 14.1 | 30.6 | 10.9 | 12.4 | 3.99 |
| COc1ccccc1OCC(COC(=O)Nc1ccccc1)OC(=O)Nc1ccccc1 (centres undefined) | > 100 | > 100 |  | > 100 |  |  |  |
| C#CC[C@@]12CC(=O)C[C@@H]1CCC1(C2)OCCO1 (tested in a mixture with another compound) |  |  | > 100 | > 100 | > 100 | > 59.7 | > 75 |
| O=C(O)CCC(=O)OCN1C(=O)C2C3C=CC(C2C1=O)C1C2C(=O)N(COC(=O)CCC(=O)O)C(=O)C2C31 (centres undefined) | > 67.9 | > 100 | > 100 | > 100 |  |  |  |
